In patent publication US20190255175A1, “ACTIVATION OF TRPA1+ NOCICEPTORS IN THE VAGUS NERVE ATTENUATES SYSTEMIC INFLAMMATION” (THE FEINSTEIN INSTITUTE FOR MEDICAL RESEARCH, priority 2018, published 2019):

What was measured:
[1] = test system: nodose ganglion neurons; assay: Whole-cell patch clamp recordings of nodose ganglion neurons; format: cell-based, mice
Method: Whole-cell patch clamp recordings were made with glass pipettes pulled on a P-97 electrode puller (Sutter Instruments, Novato, Calif.). The resistance of the pipettes was 2-4 MΩ when filled with an intracellular solution (in mM: CsCl 140, HEPES 10, EGTA 5, Mg-ATP 2, NaGTP 0.3, MgCl2 2, Phosphocreatine 10, pH 7.25 adjusted with CsOH). Cells were superfused at a rate of 2 ml/min with an external bath solution containing the following (in mM): 150 NaCl, 2.5 KCl, 10 HEPES, 10 D-glucose, 2 CaCl2, and 1 MgCl2, pH 7.3-7.4. Experiments were performed at room temperature (22-24° C.). Currents from neurons were monitored with an Multiclamp 700B amplifier (Molecular Devices, Union City, Calif.), acquired through Digidata 1550B (Molecular Devices) onto a computer using pClamp 11 software (Molecular Devices). Data were analyzed using Clampfit 11 (Molecular Devices). All chemicals used for electrophysiological recordings were purchased from Sigma. All drugs and solutions were made fresh from drug stock solutions.
Using patch clamp recordings, IL-1β responses were recorded in nodose ganglion neurons. Application of IL-1β (20 μg/ml) induced calcium influx as indicated by increase of fluorescence in 6 out of 332 (1.8%) sensory nodose ganglion neurons from VGlut2-GCaMP3 mice. Next, whole-cell patch clamp recordings were carried out on the same neurons that responded to IL-1β in calcium influx analysis. When the membrane potential was held at −65 mV, bath application of IL-1β (20 μg/ml) produced slow inward currents in 4 out of 332 (1.2%) nodose neurons. The amplitude of IL-1β induced currents are 108±23 pA (n=4). […] In current-clamp mode, IL-1β reduced action potential threshold from −25±2 mV to −31±3 mV (n=4). […] To further determine the potential interaction of TRPA1 with IL-1β, nodose ganglion neurons from TRPA1 KO mice were examined in a culture system. […] IL1R1 co-localizes with TRPA1 on nodose ganglion neurons, as was determined using immunohistochemical staining.

[2] = Thermoregulation: intraperitoneal body temperature recorded by implant after IL-1β injection; format: in vivo, mice; conditions: for Change in ip body temperature: WT mice
Method: FIG. 5A-5B. […] Body temperature was recorded using an ETA-F10 temperature implant (DSI New Brighton, Minn.) that was placed in the peritoneal cavity and fixed to the peritoneal wall. After recording the baseline temperature for 1 hr, rmIL-1β (5.0 μg/kg) was administered by i.p injection. Body temperature of wildtype (n=4) and TRPA1 KO mice (n=4) was recorded for 5 hours post injection. ****p<0.0001. B) IL-1β induces a dose-dependent hypothermic response in mice. After recording the baseline temperature for 1 hr, rmIL-1β (0 [n=4], 0.5 [n=4], 50.0 [n=3] μg/kg) was administered by i.p injection. Body temperature was recorded for 5 hours post injection.
Mice were anesthetized with 2.5% isoflurane with an oxygen flow of 1 L/min. Once anesthetized, the mouse was moved to a supine position with the isoflurane maintained at 2.0% during surgery. A midline incision was made above the peritoneal cavity, with a ETA-F10 temperature implant (DSI New Brighton, Minn.) placed in the peritoneal cavity and tacked to the peritoneal wall. The cavity was then closed, and the mouse monitored every day for 3 days. The mouse was allowed to recover for a minimum of five days prior to any manipulation. The mice were placed on the DIS with baseline ip body temperature recorded for 1 hour prior to IL-1β or saline injection. The ip body temperature recording then continued for 5 hours post injection.
Thermoregulation, specifically in cold sensing, is another major function of the TRPA1 ion channel. When housed at approximately 23° C., WT mice injected with murine IL-1β (5 μg/kg) have significant decrease in body temperature (t-test, p<0.0001) peaking at a temperature change of −2.3±0.15° C., while TRPA1 KO mice have no significant change in body temperature after IL-1β (5 μg/kg) peaking at 0.18±0.40° C. (FIG. 5A). […] However, there was no significant change in ip body temperature after saline ([…]) (t-test, p>0.05) (FIG. 5B). This indicates a previously unknown mechanism of IL-1β fever singling through TRPA1+ fibers of the vagus nerve, linking TRPA1's role in both thermoregulation as well as afferent inflammatory signaling through the vague nerve.

With “IL-1β: interleukin 1β; recombinant human IL-1β for nerve recordings, murine (rmIL-1β) for thermoregulation” the “Neurons with slow inward currents” value ([1]; IL-1β 20 μg/ml bath application, held at −65 mV, 4 out of 332 neurons) was 1.2%, the “Amplitude of IL-1β induced currents” value ([1]; IL-1β 20 μg/ml, −65 mV, n=4) was 108±23 pA and the “Action potential threshold after IL-1β” value ([1]; current-clamp mode, reduced from −25±2 mV, n=4) was −31±3 mV. For the same substance, the “Peak body temperature change” value ([2]; TRPA1 KO mice, IL-1β 5 μg/kg ip) was 0.18±0.40 °C, the “Peak body temperature change” value ([2]; WT mice housed at approximately 23° C., murine IL-1β 5 μg/kg ip) was −2.3±0.15 °C and the “Change in ip body temperature” value ([2]; IL-1β 0.5 μg/kg) was “significant decreases”. The “Change in ip body temperature” value ([2]; IL-1β 50 μg/kg) was “significant decreases”.
